Patent publication US11691992B2 (Anacor Pharmaceuticals, Inc., priority 2017, dated 2023)

Legend:
Format in all cases: cell-based
[1] = tested on: luciferase-expressing L. major parasites developing intracellularly inside RAW 264.7 macrophages; assay: Leishmania major intracellular amastigote assay in RAW 264.7 macrophages (luciferase); conditions: RAW264.7, 96 hours, read-out: IC50: I Org. intracellular amastigote Growth L. major, 4 d
Text: Example 107. Assay for Leishmania major Intracellular Amastigote Assay in RAW 264.7 Macrophages
The intracellular amastigote assay is a microtiter plate drug sensitivity assay that uses the activity of luciferase as a measure of proliferation of luciferase-expressing L. major parasites developing intracellularly inside RAW 264.7 macrophages in the presence of antileishmanial drugs or experimental compounds. (Buckner, F. S., and A. J. Wilson. Am J Prop Med Hyg, 2005, 72(5): 600-605.) As the activity of luciferase and its associated luminescence after addition of the substrate, luciferin, is relative to parasite growth, a test compound that inhibits the growth of the parasite will result in a lower luminescence. The luciferase-expressing L. major parasite used in this assay is genetically modified by adding the luciferase coding region to the pLEXSY-hyg2 vector (Jena Biosciences). The luciferase expression construct was created by digesting the luciferase coding region (1.66 kbp) of pGL3-Basic (Promega) by using two restriction enzymes, NcoI/EagI, followed by electrophoretic separation of the luciferase coding region on a 1% agarose gel. The luciferase coding region was then ligated into pLEXSY-hyg2 vector (Jena Biosciences) which had previously been digested with NcoI/NotI. The vector was linearized with SwaI and subsequently gel purified prior to transfection into L. major parasites. Transfections were carried out by electroporation at 480V, 13Ω, and 500 μF (0.4 mL of 1×10^8 parasites/mL, and 0.1 mL of 10 μg DNA). Selection for transfectants was then carried out using hygromycin B (100 μg/mL). RAW 264.7 macrophages were cultured in DMEM media (ATCC Cat #30-2002) supplemented with heat-inactivated 10% FBS (Invitrogen Cat #10438-034). To begin the assay, macrophages were harvested from culture by removing all spent media, adding in 10 mL fresh media, scraping cells, and counted using Trypan Blue. The cells were resuspended in DMEM/10% HIFBS media at 2.0×10^5 cells/mL, and then dispensed in a volume of 50 μL to yield a final concentration of 10,000 macrophages/well in 384 well tissue-culture treated sterile white plates (Nunc Cat #12-565-343) using a Tecan EVO Freedom robotics system. The plates were then incubated at 37° C. overnight in 5% CO2 atmosphere for 24 hours. After overnight incubation, the media was removed from each well using the Tecan EVO Freedom robot, and L. major promastigotes were added to each well and allowed to invade the RAW macrophages. Promastigotes were cultured in Schneider's medium (Invitrogen Cat #11720-067) supplemented with 20% heat inactivated FBS. Metacyclic stage promastigotes provide the best invasion for this assay, and cultures should be grown to increase the percentage of metacyclic promastigotes for best results. Promastigotes were harvested from culture, counted, suspended at 2×10^6 promastigotes/mL in DMEM/HIFBS media, and 100,000 promastigotes were dispensed per well in a volume of 50 μL. After overnight incubation, the media was removed from each well using the Tecan Freedom EVO robot, and each well was subsequently washed three times with 40 μF of fresh DMEM/HIFBS medium to remove all extracellular promastigotes. After the third wash, 69.2 μF of DMEM/HIFBS medium was added to each well using the Tecan EVO Freedom robot. Drug plates were prepared with the Tecan EVO Freedom using sterile 96 well plates containing twelve duplicate two-fold serial dilutions of each test compound suspended in DMSO. 7.8 μF of diluted test compound was added to the 69.2 μF of media present in each well providing a 10 fold final dilution of compound. The final concentration range tested was 0.5 to 10,000 ng/ml for all assays. The plates were next incubated at 37° C. and 5% CO2 for 96 hours. After 96 hours of incubation, 7.5 μF of a luciferin solution (Caliper Fife Science) diluted to 150 μg/mF was added to each well, and the plates were incubated for 30 minutes at 37° C., in the dark. […]

[2] = tested on: TdTomato-modified T. cruzi (CL strain) in Vero cells; assay: In vitro IC50 measurement of T. cruzi amastigote killing using TdTomato-modified T. cruzi (CL strain); conditions: Trypanosoma cruzi, 72 h, fluorescence, read-out: IC50: I Org. amastigote Growth T. cruzi CL TdTomato, 3 d
Description: Example 112. In Vitro IC50 Measurement of T. cruzi Amastigote Killing Using TdTomato-Modified T. cruzi (CL Strain)
The T. cruzi parasites used in this assay were genetically modified to express Td Tomato fluorescent protein. Vero cells (African green monkey kidney epithelial cells) were harvested from continuous cultures using trypsin and added to the inner 60 wells of 96-well Greiner Bio One plates (plate catalog #655090) at 200 ul/well of […]. Cells were allowed to adhere for 1 h before infection with T. cruzi. T. cruzi for infection were harvested from previously-infected Vero cells, washed, pelleted and resuspended at 5×10^6/mL. 50 uL of parasites were added to each well containing Vero cells. Compounds were prepared from 5 mM stock concentrations in DMSO to final concentrations in wells ranging from 5 uM to 5 nM. Wells were provided for negative controls, lacking compounds. Plates were placed into a 37° C. incubator for 20 min, then a “Day 0” reading was taken on a Synergy H4 plate reader to record initial fluorescence levels, at 544 (excitation) and 612 nm (emission). 96-well plates were placed in Tupperware containers with wet paper towels and incubated at 37° C. incubator for 72 h. After 72 h plates were reread (Day 3 reading) and data analyzed using Excel and/or Graphpad software. Day 0 fluorescence was subtracted from Day 3 to remove input parasite fluorescence. Growth curves are generated and 50% and 90% inhibitory concentrations are determined by nonlinear regression analysis.

[3] = tested on: IL3000 T. congolense (drug sensitive) strain; assay: In vitro Alamar Blue 72 h drug sensitivity assay for T. congolense; conditions: Trypanosoma congolense; bloodstream form, 69 h + 3 h resazurin, 34° C.; classes A-C; read-out: IC50: I Org. Growth T. congolense IL-3000, 3 d
Description: Example 106. In Vitro Alamar Blue 72 h Drug Sensitivity Assay for T. congolense
Compounds were tested in vitro for chemotherapeutic potency against the IL3000 T. congolense (drug sensitive) strain, using the Alamar Blue assay with several modifications. Test compounds were prepared as 10 mg/mL DMSO stocks for each assay run. Compounds were assayed in at least three separate, independent test runs and an 11-point dilution curve was used to determine the IC50 values. Bloodstream form trypanosomes were supported in HMI media containing 20% bovine serum and were incubated with test compounds for 69 h at 34° C. in a humidified atmosphere containing 5% CO2. Thereafter, 10 μL of Resazurin dye (12.5 mg in 100 mL of phosphate buffered saline, Sigma-Aldrich, Buchs, Switzerland) were added for an additional 3 h. Plates were then read using a fluorescent plate reader (Spectramax, Gemini XS, Bucher Biotec, Basel, Switzerland) using an excitation wavelength of 536 nm and an emission wavelength of 588 nm. Data points were averaged to generate sigmoidal dose-response curves and IC50 values were determined using Softmax Pro 5.2 software.

`O=C(Nc1ccc2c(c1)B(O)OC2)c1nnn(C2CCC2)c1C(F)(F)F` [Example 45, 1-cyclobutyl-N-(1-hydroxy-1,3-dihydrobenzo[c][1,2]oxaborol-6-yl)-5-(trifluoromethyl)-1H-1,2,3-triazole-4-carboxamide] showed an IC50 [1] of 10000 to 50000 nM.
For `Cc1c(C(=O)Nc2ccc3c(c2)B(O)OC3)nnn1C1CC1` [Example 38, 1-cyclopropyl-N-(1-hydroxy-1,3-dihydrobenzo[c][1,2]oxaborol-6-yl)-5-methyl-1H-1,2,3-triazole-4-carboxamide], the IC50 [1] was at most 1000 nM.
`CCn1nnc(C(=O)Nc2ccc3c(c2)B(O)OC3)c1C(F)(F)F` [Example 28, 1-ethyl-N-(1-hydroxy-1,3-dihydrobenzo[c][1,2]oxaborol-6-yl)-5-(trifluoromethyl)-1H-1,2,3-triazole-4-carboxamide] gave an IC50 [1] of at most 1000 nM.
In the case of `CCc1c(C(=O)Nc2ccc3c(c2)B(O)OC3)nnn1-c1ccccn1` [Example 49, 5-ethyl-N-(1-hydroxy-1,3-dihydrobenzo[c][1,2]oxaborol-6-yl)-1-(pyridin-2-yl)-1H-1,2,3-triazole-4-carboxamide], the IC50 [2] is reported as under 600 nM and the IC50 [3] is reported as under 100 nM.
In the case of `CCCn1nnc(C(=O)Nc2ccc3c(c2)B(O)OC3)c1C` [Example 36, N-(1-hydroxy-1,3-dihydrobenzo[c][1,2]oxaborol-6-yl)-5-methyl-1-propyl-1H-1,2,3-triazole-4-carboxamide], the IC50 [1] is reported as at most 1000 nM.
For `CC(C)n1nnc(C(=O)Nc2ccc3c(c2)B(O)OC3)c1C(F)(F)F` [Example 32, N-(1-hydroxy-1,3-dihydrobenzo[c][1,2]oxaborol-6-yl)-1-isopropyl-5-(trifluoromethyl)-1H-1,2,3-triazole-4-carboxamide], the IC50 [1] was at most 1000 nM.
With `O=C(Nc1ccc2c(c1)B(O)OC2)c1nnn(C2CCCC2)c1C(F)(F)F` [Example 30, 1-cyclopentyl-N-(1-hydroxy-1,3-dihydrobenzo[c][1,2]oxaborol-6-yl)-5-(trifluoromethyl)-1H-1,2,3-triazole-4-carboxamide] the IC50 [1] was at most 1000 nM.
Work on `O=C(Nc1ccc2c(c1)B(O)OC2)c1nnn(C2CC2)c1C(F)(F)F` [Example 29, 1-cyclopropyl-N-(1-hydroxy-1,3-dihydrobenzo[c][1,2]oxaborol-6-yl)-5-(trifluoromethyl)-1H-1,2,3-triazole-4-carboxamide] yielded an IC50 [1] of at most 1000 nM.
Work on `Cc1c(C(=O)Nc2ccc3c(c2)B(O)OC3)nnn1CC(F)(F)F` [Example 39, N-(1-hydroxy-1,3-dihydrobenzo[c][1,2]oxaborol-6-yl)-5-methyl-1-(2,2,2-trifluoroethyl)-1H-1,2,3-triazole-4-carboxamide] yielded an IC50 [1] of at most 1000 nM.
`O=C(Nc1ccc2c(c1)B(O)OC2)c1nnn(CC2CC2)c1C(F)(F)F` [Example 34, 1-(cyclopropylmethyl)-N-(1-hydroxy-1,3-dihydrobenzo[c][1,2]oxaborol-6-yl)-5-(trifluoromethyl)-1H-1,2,3-triazole-4-carboxamide] was tested, and the IC50 [1] was at most 1000 nM.
`COCCc1c(C(=O)Nc2ccc3c(c2)B(O)OC3)nnn1-c1ccccn1` [Example 52, N-(1-hydroxy-1,3-dihydrobenzo[c][1,2]oxaborol-6-yl)-5-(2-methoxyethyl)-1-(pyridin-2-yl)-1H-1,2,3-triazole-4-carboxamide] showed an IC50 [2] of 1100 to 10000 nM and an IC50 [3] of 100 to 300 nM.
`COCCn1nnc(C(=O)Nc2ccc3c(c2)B(O)OC3)c1C` [Example 40, N-(1-hydroxy-1,3-dihydrobenzo[c][1,2]oxaborol-6-yl)-1-(2-methoxyethyl)-5-methyl-1H-1,2,3-triazole-4-carboxamide] was tested, and the IC50 [1] was at most 1000 nM.
`Cc1c(C(=O)Nc2ccc3c(c2)B(O)OC3)nnn1C(C)C` [Example 37, N-(1-hydroxy-1,3-dihydrobenzo[c][1,2]oxaborol-6-yl)-1-isopropyl-5-methyl-1H-1,2,3-triazole-4-carboxamide] gave an IC50 [1] of at most 1000 nM.
`COCCn1nnc(C(=O)Nc2ccc3c(c2)B(O)OC3)c1C(F)(F)F` [Example 33, N-(1-hydroxy-1,3-dihydrobenzo[c][1,2]oxaborol-6-yl)-1-(2-methoxyethyl)-5-(trifluoromethyl)-1H-1,2,3-triazole-4-carboxamide] showed an IC50 [1] of at most 1000 nM.
Molecule `CCCn1nnc(C(=O)Nc2ccc3c(c2)B(O)OC3)c1C(F)(F)F` [Example 31, N-(1-hydroxy-1,3-dihydrobenzo[c][1,2]oxaborol-6-yl)-1-propyl-5-(trifluoromethyl)-1H-1,2,3-triazole-4-carboxamide] has an IC50 [1] of at most 1000 nM.
`Cc1c(C(=O)Nc2ccc3c(c2)B(O)OC3)nnn1C1CCCC1` [Example 41, 1-cyclopentyl-N-(1-hydroxy-1,3-dihydrobenzo[c][1,2]oxaborol-6-yl)-5-methyl-1H-1,2,3-triazole-4-carboxamide] gave an IC50 [1] of at most 1000 nM.
Work on `Cc1c(C(=O)Nc2ccc3c(c2)B(O)OC3)nnn1CC1CCCC1` [Example 44, 1-(cyclopentylmethyl)-N-(1-hydroxy-1,3-dihydrobenzo[c][1,2]oxaborol-6-yl)-5-methyl-1H-1,2,3-triazole-4-carboxamide] yielded an IC50 [1] of 10000 to 50000 nM.
Molecule `Cc1c(C(=O)Nc2ccc3c(c2)B(O)OC3)nnn1CC1CC1` [Example 43, 1-(cyclopropylmethyl)-N-(1-hydroxy-1,3-dihydrobenzo[c][1,2]oxaborol-6-yl)-5-methyl-1H-1,2,3-triazole-4-carboxamide] has an IC50 [1] of 10000 to 50000 nM.
`O=C(Nc1ccc2c(c1)B(O)OC2)c1nnn(CC2CCCC2)c1C(F)(F)F` [Example 35, 1-(cyclopentylmethyl)-N-(1-hydroxy-1,3-dihydrobenzo[c][1,2]oxaborol-6-yl)-5-(trifluoromethyl)-1H-1,2,3-triazole-4-carboxamide] was tested, and the IC50 [1] was at most 1000 nM.
